Literature values in publication PMC10855781 (International Journal of Molecular Sciences, 2024).
“Also recorded” adds a separate entry of the source. Where two headings read alike, the source gives them in different places.

What was measured:
[1] = system: PC3 cells; details: ref [84], read-out: cytostatic effect (IC50)
Excerpt: (§1) Table 4 In vitro and in vivo activity of bombesin analog–daunomycin conjugates on PC3 cells. | column: L1: Dau=Aoa-LRRY- […]le-NH2; L5: Dau=Aoa-LRRY- fQWAVGHStaL-NH2; L6: Dau=Aoa-LRRY- fQWAVβAlaHStaNle-NH2

[2] = system: PC3 cancer cell lines; details: PC3, 1.5 h incubation; concentration for internalization of 50% of the conjugate in living cells; ref [84]; read-out: cellular uptake (UC50)
Excerpt: as §1

[3] = system: PC-3 human prostatic adenocarcinoma; parameters: method as in PMID 36834815; details: s.c. PC-3, ref [84]
Excerpt: This 14-mer peptide (Glp-[…]NH2), first discovered in the skin of the frog Bombina bombina, is associated with the gastrin-releasing peptide (GRP) as a mammalian counterpart. The bombesin receptor family comprises neuromedin receptor B (NMB-R, or BB1), gastrin-releasing peptide receptor (GRP-R, or BB2) and bombesin receptor subtype 3 (BRS-3, or BB3). Among them, GRP-R has been the most investig ...

[4] = lysosomal homogenate; details: up to 72 h
[5] = rat liver lysosomal homogenate; details: up to 6 h
[6] = system: Human cardiac myocytes (HCM); parameters: key: 0: no cardiotoxicity; +: weak; ++: moderate; +++: strong cardiotoxicity; details: long-term (0–72 h) cytotoxic effect, impedimetric; ref [75]
Excerpt: Table 2 Comparative study of cytotoxic effects and cardiotoxicity elicited by selected GnRH-based anthracycline conjugates. | column: Cardiotoxicity || The main drug-related toxic side effect of anthracyclines is cardiotoxicity, leading to cardiomyopathy and heart failure. Comparative experiments to determine the cardiotoxicity of peptide–anthracycline conjugates with different linkages might be informative for the other conjugates with different types of drugs as well. For this purpose, human cardiomyocytes (HCM) and human umbilical vein endothelial cells (HUVEC) were used as models. The long-term (0–72 h) cytotoxic effect of sixteen GnRH-based conjugates containing Dox and Dau was determined by real-time impedimetric sensing using th ...

[7] = system: human colorectal adenocarcinoma (HT-29); details: Table 2; ref [75]
Excerpt: Table 2 Comparative study of cytotoxic effects and cardiotoxicity elicited by selected GnRH-based anthracycline conjugates. || Table 3 In vivo tumor growth inhibition of a few relevant Dau-GnRH-III conjugates. | column: Cytostatic Effect (IC50: μM) on HT-29 cells

[8] = system: human umbilical vein endothelial cells (HUVEC); parameters: key: 0: no cardiotoxicity; +: weak; ++: moderate; +++: strong cardiotoxicity; details: long-term (0–72 h) cytotoxic effect, impedimetric; ref [75]
Excerpt: Table 2 Comparative study of cytotoxic effects and cardiotoxicity elicited by selected GnRH-based anthracycline conjugates. | column: Cardiotoxicity

[9] = system: human breast adenocarcinoma (MCF-7); details: ref [75]
Excerpt: Table 2 Comparative study of cytotoxic effects and cardiotoxicity elicited by selected GnRH-based anthracycline conjugates. | column: IC50 Values (μM)

[10] = system: PANC-1 (human pancreas adenocarcinoma); details: 10 μM, 72 h treatment, ref [110]
Experimental: (§2) We assessed a modified version of this peptide as a homing device, where Cys was replaced by Ser because the thiol group is not necessary to introduce an oxime linkage. […] Using this conjugate at 10 μM concentration, the cell viability of the PANC-1 cells was 0.1% after a 72 h treatment. In contrast, the cell viability of normal human dermal fibroblast (NHDF), a model of healthy cells, was roughly 75%, showing a significa ...

[11] = system: normal human dermal fibroblast (NHDF); details: 10 μM, 72 h treatment, ref [110]
Experimental: as §2

[12] = lysosomal homogenate; Dau=Aoa-Gly-OH, Dau=Aoa-Gly-Phe-OH, H-Lys(Dau=Aoa)-OH; ref [110]
[13] = system: PANC-1 tumor; details: ref [110]; for tumor growth inhibition by tumor volume: eighteen treatments, day 74
Experimental: The in vivo tumor growth inhibitory effect of the conjugate and free Dau was investigated on s.c.-developed PANC-1 tumor-bearing SCID female mice. The free drug was applied once a week at a maximum tolerated dose of 1 mg/kg body weight (three treatments), while the conjugate was administered, on average, three times per a week either at a 2 mg/kg or 10 mg/kg dose, calculated as per the Dau content (eighteen treatments altogether). The first treatment was given on day 10 after tumor inoculation. After the third treatment with free Dau, the animals lost 20% of their weight; therefore, the mice i ...

[14] = system: different cancer cell lines, e.g. HT-29; details: ref [18]
Excerpt: In our group, we synthesized conjugates based on a heptapeptide (VHLGYAT) selected by Zhang et al. and tested them on HT-29 human colon adenocarcinoma. Since sequence modification may result in different oxime-linked Dau-amino acid fragments, a cathepsin B- labile spacer was incorporated to the N-terminal of the homing peptide. From the parent compound (Dau=Aoa-LRRY-VHLGYAT-NH2), the potential positions that can be substituted were selected using Ala-scan.

[15] = system: HT-29 tumor; details: mouse, in vivo
Experimental: In our group, we synthesized conjugates based on a heptapeptide (VHLGYAT) selected by Zhang et al. and tested them on HT-29 human colon adenocarcinoma. Since sequence modification may result in different oxime-linked Dau-amino acid fragments, a cathepsin B- labile spacer was incorporated to the N-terminal of the homing peptide. From the parent compound (Dau=Aoa-LRRY-VHLGYAT-NH2), the potential positions that can be substituted were selected using Ala-scan. […] Statistical analysis was performed by Mann-Whitney test. *, ** and *** mean significant at p < 0.05, p < 0.01 and p < 0.001, respectively. Adapted with permission from ref. [18]. 2019, Elsevier. TEXT PRINTED IN THE PICTURE: (a) Dau: Tumour weight (g): 16% | (a) Parent: Tumour weight (g): 35% | (a) G/F exchange: Tumour weight (g): 11% | (b) Dau: Liver weight (g): 72% | (b) Parent: Liver weight (g): 101% | (b) G/F exchange: Liver weight (g): 90% | (c) Dau: Prol ...

Dau=Aoa-LRRY- QWAVGHLNle-NH2 [L1]
IC50 [1]: 4.38 ± 0.33 µM | EC50 [2]: 22.9 µM

Dau=Aoa-LRRY- fQWAVβAlaHStaNle-NH2 [L6]
IC50 [1]: 18 ± 3.01 µM | EC50 [2]: 16.1 µM | tumor volume inhibition ([3]; i.p. 10 mg Dau-content/kg every fifth day from day 9, five treatments, day 33, Dau 1 mg/kg, terminated day 26): 31.4% | tumor weight inhibition ([3]; i.p. 10 mg Dau-content/kg, five treatments, day 33): 33.1% | tumor DT enhancement ([3]; tumor doubling time, 10 mg Dau-content/kg): 11.5%

NH2-TFFYGGSRGKRNNFKTEEY-CONH2
fragment found [4]: H-Lys(Dau=Aoa)-OH, major, within 1 h

Dau=Aoa-LRRY- fQWAVGHStaL-NH2
fragment found [5]: Dau=Aoa-Leu-OH, less than 30 min

COc1cccc2c1C(=O)c1c(O)c3c(c(O)c1C2=O)C[C@@](O)(C(=O)CO)C[C@@H]3O[C@H]1C[C@H](N)[C@H](O)[C@H](C)O1 [doxorubicin (Dox), doxorubicin]
Cardiotoxicity, HCM [6]: +++ | IC50 [7]: 0.1 µM | Cardiotoxicity, HUVEC [8]: +++ | IC50 [9]: 0.1 µM

Dau=Aoa-LRRY- fQWAVβAlaHStaNle-NH2
fragment found [5]: Dau=Aoa-Leu-OH, less than 30 min

Dau=Aoa-GFLG-K(Dau=Aoa)SKAAKN-OH [listing 1 of 2 here]
fragment found [4]: Dau=Aoa-Gly-Phe-OH, within 72 h; also recorded: H-Lys(Dau=Aoa)-OH, within 72 h

N-O-CH2-CO-TFFYGGSRGKRNNFKTEEY-CONH2
fragment found [4]: Dau=Aoa-Thr-OH, major, within 1 h

Dau=Aoa-GFLG-K(Dau=Aoa)SKAAKN-OH [listing 2 of 2 here]
cell viability [10]: 0.1% | cell viability [11]: roughly 75% | time of release of three drug-containing metabolites [12]: ≤ 72 h | tumor growth inhibition by tumor volume ([13]; 2 mg/kg (Dau content)): 14% | tumor weight reduction ([13]; 2 mg/kg (Dau content)): 27.3% | tumor growth inhibition by tumor volume ([13]; 10 mg/kg (Dau content)): 32.2% | tumor weight reduction ([13]; 10 mg/kg (Dau content)): 30.4% | toxic side effects ([13]; 2 or 10 mg/kg Dau content): No toxic side effects | highest tumor inhibition rate ([13]; day 67, after 16 treatments, dose not stated): 43%

Dau=Aoa-LRRY-VHLFYAT-NH2
in vitro cytostasis, times higher activity than the parent conjugate ([14]; different cancer cell lines): 2–5 times | in vitro cytostasis, times higher activity than the parent conjugate ([14]; on HT-29): up to 2.6 times | Liver weight, percent label in Figure 5b [15]: 90%

Dau=Aoa-LRRY- QWAVGHLNle-NH2
fragment found [5]: Dau=Aoa-Leu-OH, less than 30 min
